Here are results for 1 compound from patent publication US7993921B2, “Cell cycle regulation and differentiation” (National Institutes of Health (NIH), priority 2007, dated 2011).

Assay [1] deals with OPCs from the cortex and cerebellum. In words: Differentiation of OPCs from the cortex and cerebellum in response to T3. As to conditions: 7 days in vitro +PDGF +T3. It is filed as cell-based, rat. On the procedure:
OPCs were purified via immunopanning specifically from the cortices or cerebellums of P7 Sprague-Dawley rats. These cells were then plated onto glass coverslips in the presence or absence of mitogens PDGF and NT3 (±PDGF) and presence or absence of thyroid hormone (±T3) and cultured for 3 (−PDGF) or 7 (+PDGF ±T3) days in vitro, with fresh media being supplied every 2-3 days. At the end of this time, cultures were stained for either CNPase expression (less mature) or MBP expression (more mature) as markers of OL differentiation. Percentages of healthy cells (as assessed by healthy nuclei visualized by DAPI staining) expressing indicated markers were quantified for each condition. […] All experiments analyzed in triplicate, ±S.E.M.

Assay [2] relates to p57^Kip2. In words: p57^Kip2 expression in OPCs (RT-PCR, immunostaining of clones). In kind it is cell-based, rat. From the text: p57^Kip2 was either over-expressed or reduced in levels in pure OPCs, and normal OL differentiation and OPC proliferation was observed. To test the necessity of p57^Kip2 in OL differentiation, knockdowns for p57^Kip2 were used to reduce p57^Kip2 levels in OPCs. p57^Kip2 levels were reduced by transfecting OPCs with siRNA directed against the p57^Kip2 transcript, and then cultured the transfected OPCs in media that stimulated OL differentiation. […] OPCs transfected with firefly luciferase- (cont) or p57^Kip2-targeting siRNA pools (Dharmacon) were cultured for 4 D.I.V. in −PDGF +T3 or +PDGF +T3 media and reduction in p57^Kip2 transcript levels by this method was confirmed by RT-PCR (27 cycles).
OL differentiation can be triggered by either by mitogen withdrawal or by the intrinsic timer coupled with exposure to T3 (Barres and Raff, Neuron 12:935-942 (1994)). Whereas either of these conditions will produce mature OLs, the initial genetic programs triggered by these two stimuli are not identical (Tokumoto et al., EMBO J. 20:5261-5268 (2001)). To more precisely determine how p57^Kip2 expression is induced, purified P8 OPCs were subjected to either mitogen withdrawal, T3 exposure, or both differentiation-promoting stimuli simultaneously (FIG. 48I). […]

The subject of assay [3] is KLF9, Hr, DBP, BHLHB5. Kind of assay: Transcription factor induction by T3 in OPCs (Affymetrix Mouse Genomic 430 2.0 chips). In kind it is cell-based. How it is done: FIG. 57. KLF9, Hr, DBP, and BHLHB5 are induced in OPCs by T3. Transcription factor probe sets were induced >2-fold by T3 at early time points relative to untreated (+PDGF −T3) controls. OPCs were treated with T3 for either 1 day or 6 days in vitro with T3 (+PDGF +T3), or for only 3 hours with T3 following 1 day or 6 days in vitro in media lacking T3 (+PDGF −T3, then 3 hours +PDGF +T3). All samples were labeled and hybridized to Affymetrix Mouse Genomic 430 2.0 chips.
In OPCs cultured in saturating amounts of mitogens and T3, a small number of transcription factors are rapidly and robustly regulated in response to T3 presentation (as compared to control cultures maintained in mitogens in the absence of T3). These four genes are 1) Kruppel-Like Factor 9 (KLF9), also known as Basic Transcription Element Binding protein 1(BTEB1), 2) basic helix-loop-helix domain containing, class B5 (BHLHB5), also known as Beta3, 3) Hairless, (Hr), or ALUNC, AU, N, ba, bldy, hr, rh, rh-bmh, rhino, and 4) D site albumin promoter binding protein (DBP). KLF9, Hr, and DBP are all induced (2-6 fold) rapidly in OPCs in response to T3, before the OPCs initiate differentiation in response to T3 presentation (FIG. 57).

With `N[C@@H](Cc1cc(I)c(Oc2ccc(O)c(I)c2)c(I)c1)C(=O)O` [T3, triiodothyronine], the “expression of mature OL proteins (CNPase, MBP) in cerebellar vs cortical OPCs in response to T3” value in assay [1] is “similarly”. Further, the “clones expressing uniformly high levels of p57^Kip2” value in assay [2] (7 days in +PDGF +T3 medium, clonal density) is listed as 15 out of 23. Besides, the “p57^Kip2 expression by semi-quantitative RT-PCR” value in assay [2] (T3 exposure, 6 DIV, purified P8 OPCs) is listed as “did not induce”. Moreover, in assay [3] (+PDGF +T3 vs +PDGF −T3 controls), the “KLF9, Hr and DBP induction in OPCs in response to T3” value is 2-6 fold. For the same compound, the “transcription factor probe sets (KLF9, Hr, DBP, BHLHB5) induced by T3” value in assay [3] (early time points relative to untreated (+PDGF −T3) controls) is listed as more than 2 fold. In assay [3] (within 3 hours of T3 exposure), the “KLF9 induction by T3 in OPCs” value amounted to 4 fold.
